Patent publication US20080004695A1, “EVEROLIMUS/PIMECROLIMUS-ELUTING IMPLANTABLE MEDICAL DEVICES” (Abbott Cardiovascular Systems Inc., priority 2006, published 2008)

Columns and labels:
[1] = in vivo release from PVDF-HFP-based coated stent implanted in a pig; settings: PVDF-HFP matrix stent implanted in a pig, day 7
Procedure: A 12 mm Vision™ stent was cleaned in a bath of isopropyl alcohol and treated in a plasma cleaner to strip the top layer of molecules from the stent for better coat adhesion. The stent was then spray-coated with a primer solution consisting of 2% PBMA. The coated stent was dried in a convection oven at 80° C. for 0.5 hours.
The stent was then spray-coated with a drug reservoir solution consisting of PVDF-HFP, pimecrolimus and everolimus. A drug:polymer ratio of 1:3.5 of both pimecrolimus and everolimus to PVDF-HFP was used to coat the stent in order to obtain 64 μg of pimecrolimus and 64 μg of everolimus in the final coating. Spray coating parameters and the solvent were identical to those used for coating with the primer layer.
The stent was implanted in a pig and 1, 3 and 7 day release rates were obtained and compared with 24 hour release rates in porcine serum. […] By day 7, release of both drugs was 30%.

[2] = 24 hour release of everolimus and pimecrolimus from dual-coated stent in porcine serum; type: physicochemical; settings: EVAL-based dual-coated 12 mm Vision stent
Procedure: Using the method set forth in Example 1, a 12 mm Vision™ stent was similarly coated with everolimus and pimecrolimus. The 24 hour release of everolimus and pimecrolimus in porcine serum was then measured using methods known in the art. […] For pimecrolimus, 12.4 μg of an expected 60.6 μg of pimecrolimus was released over 24 hours resulting in 20.5% release.

Structure (SMILES) | in vivo percent release [1] [%] | % release over 24 hours [2] [%] | amount released over 24 hours [2] [µg]
CO[C@H]1C[C@@H]2CC[C@@H](C)[C@@](O)(O2)C(=O)C(=O)N2CCCC[C@H]2C(=O)O[C@H]([C@H](C)C[C@@H]2CC[C@@H](OCCO)[C@H](OC)C2)CC(=O)[C@H](C)/C=C(\C)[C@@H](O)[C@@H](OC)C(=O)[C@H](C)C[C@H](C)/C=C/C=C/C=C/1C [everolimus] | 30 | 19.7 | 12.2
CC[C@@H]1/C=C(\C)C[C@H](C)C[C@H](OC)[C@H]2O[C@@](O)(C(=O)C(=O)N3CCCC[C@H]3C(=O)O[C@H](/C(C)=C/[C@@H]3CC[C@H](Cl)[C@H](OC)C3)[C@H](C)[C@@H](O)CC1=O)[C@H](C)C[C@@H]2OC [pimecrolimus] | 30 | 20.5 | 12.4
